Data as given in patent publication US8362023B2, “Pyrazolo pyrimidines” (Hoffmann-La Roche Inc., priority 2011, dated 2013).
Where a name gives a salt, the structure may show the parent alone. Read-outs that look alike come from different tables or passages of the source.

Tests used:
[1] = molecular target: T1, Human DYRK1B (Homo sapiens, UniProt Q9Y463); assay: DYRK1B Kinase TR-FRET (IMAP-Tb) Assay; type: biochemical
T1 construct: purchased Invitrogen PR8350B (former PV4649)
Source text: DYRK1B Kinase TR-FRET (IMAP-Tb) Assay Assay Principle The kinase TR-FRET (IMAP-Tb) assay uses a fluorescence labeled substrate peptide in the kinase reaction. Upon phosphorylation by the kinase, phosphopeptide is produced, which will be detected by the binding solution provided in IMAP TR-FRET binding kit. After the completion of the kinase reaction, the reaction will be stopped by adding the binding solution containing terbium tracer. This tracer is immobilized on the surface of the IMAP beads, which also contain metal ions on the beads that bind to the phospho-groups of the products. Thus the phosphorylated product of the reaction can enter into close proximity to the tracer, producing resonance energy transfer. Due to the long lifetime of terbium (Tb) fluorescence the detection can be run in time resolved mode, which virtually eliminates fluorescence interference from assay components or compounds. The TR-FRET signal measurement from this assay, given as an IC50 measurement, is a measure of a test compound's ability to interfere with the phosphorylation of the peptide substrate, that is it inhibits the phosphorylation of the substrate peptide by DYRK1B, and is thus a measure of the test compound's ability to inhibit the activity of DYRK1B. IC50 is the amount of test compound that inhibits 50% of the activity of DYRK1B in this assay. In some cases where the IC50 was not determined, then the % inhibition at 10 μM test compound concentration may be reported. Materials and Reagents • 1. Human DYRK1B: from Invitrogen. Part #PR8350B (former PV4649) • 2. Substrate Peptide: in-house synthesized: RRRFRPASPLRGPPK • 3. IMAP TR-FRET IPP Explorer Kit: from Molecular Devices. Part #R8157 • 4. Kinase Assay Buffer (KAB): 10 mM HEPES pH 7.0, 50 mM NaCl, 5 mM MgCl2, 1 mM DTT, 1 mM NaVO4, 200 μg/mL BSA (0.02%) • 5. Assay Plate: Remp polypropylene clear 384-well microplate. Cat#23490-102 • 6. Detection Plate: Costa black 384-well microplate. Cat #3710 Assay Procedure: this Assay was Performed as Follows: • 1. Transfer 1.5 μL of 20× compound solution to each well of an assay plate. • 2. Add to each well 22.5 μL of KAB Buffer. • 3. Add to each well 3 μL of the solution of DYRK1B and ATP. […] Add to each well 3 μL of the substrate peptide. The assay concentration is 1.0 μM • 5. Incubate the assay plates at 37° C. for 60 minutes. • 6. Add 18 μL of Detection Solution (1:800 diluted Progress bead stock, 1:400 diluted Tb stock, 80% Buffer A, and 20% Buffer B) into each well of detection plates. • 7. Transfer 6 μL of assay solution from the assay plate to the detection plate. • 8. Shake detection plates for 30 minutes. • 9. Read plates in Envision with wavelength set at excitation 340 nm for Tb, emission 490 nm, and […] 520 nm. • 10. Calculation: TR-FRET Signal=(Reading at […]/Reading at 490 nM)×2000000

[2] = system: SW620 human colon cancer cells; assay: SW620 Cell Viability Assay; type: cell-based; settings: SW-620, 96 h, CellTiter-Glo Luminescent Cell Viability Assay, 4 days incubation, read-out: Cellular EC50 (μM) SW620
Experimental: SW620 Cell Viability Assay
1. Cell Plate Preparation: SW620 human colon cancer cells (known to express DYRK1B), obtained from ATCC, were seeded into 96-well plates at 3×10^3 cells/well in 50 μL of media. • Harvested the required number of cells (counts & viability determined by Guava Viacount). • Centrifuge cells to pellet and removed supernant. • Resuspended in growth media (50 μL/well) & pipetted thoroughly to break up clumps. • Setup for ˜100 wells/plate, therefore, VT=5 mL/plate @ […].
1A. Some cells (S—) were allowed to attach for 24 hrs, serum starved for 48 hrs, and then followed with test compound treatments.
Test compound solution were prepared in regular corresponding media supplemented with serum.
2. Test compound Preparation: Drugs were solubilized in either DMSO or media and prepared at various stock concentrations. • All compounds were incubated at 37° C. for 30 minutes and vortexed. • (5 mM stocks of test compound were prepared for non-soluble test compounds)
3. Test compound Plate Preparation: • The 10 mM test compound stock was diluted to a concentration of 100× the final Cmax concentration. • Then the test compound stock is diluted 50-fold in media and/or second test compound for a final Cmax concentration in the test compound plate. • The Cmax in the test compound plate (2% DMSO) is 2-fold higher than the final Cmax in the cell plate (60 μl, titrations were 1:3).
4. Viability Assay: This assay was performed as follows: • Transfer 50 μL of test compound solution per well from the test compound plate onto the cell plate prepared in Step #1. • Mix the plate with treated cells by pipetting up and down three times with 200 μL multi-channel pipette. • Incubate the cells in 5% CO2 incubator @ 37° C. for 4 days. • Run the CellTiter-Glo™ Luminescent Cell Viability Assay.
The results of this assay, given as EC50 values, indicate the concentration of test compound that inhibits tumor cell proliferation by 50%.

[3] = molecular target: T2, Human DYRK1A (Homo sapiens, UniProt Q13627); assay: DYRK1A Kinase TR-FRET (IMAP-Tb) Assay; type: biochemical; settings: TR-FRET (IMAP-Tb); ATP 70 μM; 37° C. for 60 minutes; averages of multiple runs; read-out: Enzyme IC50 (μM) DYRK1A
T2 construct: purchased Invitrogen PV3997
Source text: DYRK1A Kinase TR-FRET (IMAP-Tb) Assay
The kinase TR-FRET (IMAP-Tb) assay uses a fluorescence labeled substrate peptide in the kinase reaction. Upon phosphorylation by the kinase, phosphopeptide is produced, which will be detected by the binding solution provided in IMAP TR-FRET binding kit. After the completion of the kinase reaction, the reaction will be stopped by adding the binding solution containing terbium tracer. This tracer is immobilized on the surface of the IMAP beads, which also contain metal ions on the beads that bind to the phospho-groups of the products. Thus the phosphorylated product of the reaction can enter into close proximity to the tracer, producing resonance energy transfer. Due to the long lifetime of terbium (Tb) fluorescence the detection can be run in time resolved mode, which virtually eliminates fluorescence interference from assay components or compounds.
The TR-FRET signal measurement from this assay, given as an IC50 measurement, is a measure of a test compound's ability to interfere with the phosphorylation of the peptide substrate, that is it inhibits the phosphorylation of the substrate peptide by DYRK1A, and is thus a measure of the test compound's ability to inhibit the activity of DYRK1A.
Materials and Reagents • 1. Human DYRK1A: from Invitrogen. Part #PV3997 • 2. Substrate Peptide: […] • 3. IMAP TR-FRET IPP Explorer Kit: from Molecular Devices. Part #R8157 • 4. Kinase Assay Buffer (KAB): 10 mM HEPES pH 7.0, 50 mM NaCl, 5 mM MgCl2, 1 mM DTT, 1 mM NaVO4, 200 ug/mL BSA (0.02%) • 5. Assay Plate: Remp polypropylene clear 384-well microplate. […] Detection Plate: Costa black 384-well microplate.
Assay Procedure: this Assay was Performed as Follows: • 1. Transfer 1.5 μL of 20× compound solution to each well of an assay plate. • 2. Add to each well 22.5 μL of KAB Buffer. • 3. Add to each well 3 μL of the solution of DYRK1A and ATP. […] Add to each well 3 μL of the substrate peptide. The assay concentration is 1.0 μM • 5. Incubate the assay plates at 37° C. for 60 minutes. • 6. Add 18 μL of Detection Solution (1:800 diluted Progress bead stock, 1:400 diluted Tb stock, 80% Buffer A, and 20% Buffer B) into each well of detection plates. • 7. Transfer 6 μL of assay solution from the assay plate to the detection plate. • 8. Shake detection plates for 30 minutes. • 9. Read plates in Envision with wavelength set at excitation 340 nm for Tb, emission 490 nm, and […] 520 nm. • 10.

[4] = TR-FRET (IMAP-Tb), ATP 70 μM, 37° C. for 60 minutes, averages of multiple runs, read-out: Enzyme IC50 (μM) DYRK1B

T1 sequence (Q9Y463 whole entry): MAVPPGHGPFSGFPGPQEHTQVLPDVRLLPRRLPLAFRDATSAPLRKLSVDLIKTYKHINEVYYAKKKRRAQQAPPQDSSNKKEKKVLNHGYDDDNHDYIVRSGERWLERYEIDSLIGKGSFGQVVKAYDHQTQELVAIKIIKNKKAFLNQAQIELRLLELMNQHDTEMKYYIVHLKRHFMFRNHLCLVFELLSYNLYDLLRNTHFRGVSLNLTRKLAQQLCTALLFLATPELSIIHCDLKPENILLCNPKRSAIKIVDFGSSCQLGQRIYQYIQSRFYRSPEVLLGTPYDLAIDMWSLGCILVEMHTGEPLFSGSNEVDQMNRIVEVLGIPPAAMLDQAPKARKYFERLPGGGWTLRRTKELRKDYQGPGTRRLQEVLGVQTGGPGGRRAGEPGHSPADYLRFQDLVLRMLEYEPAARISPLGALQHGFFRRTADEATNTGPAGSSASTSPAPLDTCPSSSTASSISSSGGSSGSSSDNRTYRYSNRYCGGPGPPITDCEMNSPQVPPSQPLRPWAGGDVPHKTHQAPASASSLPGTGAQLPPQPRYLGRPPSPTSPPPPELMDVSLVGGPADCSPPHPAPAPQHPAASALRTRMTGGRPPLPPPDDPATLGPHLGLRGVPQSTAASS

Structure (SMILES)	IC50 [1, 4]	EC50 [2]	IC50 [3]	IC50 [1]
Clc1cccc(CNc2cccc(-c3n[nH]c4nc(NCCN5CCOCC5)ncc34)n2)c1 [Example 47, {3-[6-(3-Chloro-benzylamino)-pyridin-2-yl]-1H-pyrazolo[3,4-d]pyrimidin-6-yl}-(2-morpholin-4-yl-ethyl)-amine]	1.06 µM	> 10 µM	1.39 µM	
N[C@H]1CC[C@H](Nc2ncc3c(-c4cccc(NCc5ccccc5)n4)n[nH]c3n2)CC1 [Example 49, N-[3-(6-Benzylamino-pyridin-2-yl)-1H-pyrazolo[3,4-d]pyrimidin-6-yl]-cyclohexane-1,4-diamine]	0.101 µM	1.71 µM	0.0124 µM	
N[C@H]1CC[C@H](Nc2ncc3c(-c4cccc(NCc5ccccc5)c4)n[nH]c3n2)CC1 [Example 52, N-[3-(3-Benzylamino-phenyl)-1H-pyrazolo[3,4-d]pyrimidin-6-yl]-cyclohexane-1,4-diamine]	0.241 µM	0.923 µM	0.594 µM	
N[C@H]1CC[C@H](Nc2ncc3c(-c4cccc(NCc5cccs5)c4)n[nH]c3n2)CC1 [Example 53, N-(3-{3-[(Thiophen-2-ylmethyl)-amino]-phenyl}-1H-pyrazolo[3,4-d]pyrimidin-6-yl)-cyclohexane-1,4-diamine]	0.183 µM	1.84 µM	0.405 µM	
c1cc(NCc2cccs2)cc(-c2n[nH]c3nc(NCCN4CCOCC4)ncc23)c1 [Example 54, (2-Morpholin-4-yl-ethyl)-(3-{3-[(thiophen-2-ylmethyl)-amino]-phenyl}-1H-pyrazolo[3,4-d]pyrimidin-6-yl)-amine]	4.96 µM	> 10 µM	3.85 µM	
N[C@H]1CC[C@H](Nc2ncc3c(-c4cccc(NCc5ccc(Cl)cc5)c4)n[nH]c3n2)CC1 [Example 55, N-{3-[3-(4-Chloro-benzylamino)-phenyl]-1H-pyrazolo[3,4-d]pyrimidin-6-yl}-cyclohexane-1,4-diamine]	0.181 µM	1.85 µM	0.502 µM	
N[C@H]1CC[C@H](Nc2ncc3c(-c4cccc(NCc5ccccc5Cl)c4)n[nH]c3n2)CC1 [Example 56, N-{3-[3-(2-Chloro-benzylamino)-phenyl]-1H-pyrazolo[3,4-d]pyrimidin-6-yl}-cyclohexane-1,4-diamine]	0.194 µM	4.1 µM	0.346 µM	
Clc1ccccc1CNc1cccc(-c2n[nH]c3nc(NCCN4CCOCC4)ncc23)c1 [Example 57, {3-[3-(2-Chloro-benzylamino)-phenyl]-1H-pyrazolo[3,4-d]pyrimidin-6-yl}-(2-morpholin-4-yl-ethyl)-amine]	1.55 µM	> 10 µM	2.62 µM	
N[C@H]1CC[C@H](Nc2ncc3c(-c4cccc(NCc5ccsc5)c4)n[nH]c3n2)CC1 [Example 58, N-(3-{3-[(Thiophen-3-ylmethyl)-amino]-phenyl}-1H-pyrazolo[3,4-d]pyrimidin-6-yl)-cyclohexane-1,4-diamine]	0.762 µM	6.41 µM	2.61 µM	
Clc1ccccc1CNc1cccc(-c2n[nH]c3nc(NCCN4CCOCC4)ncc23)n1 [Example 59, {3-[6-(2-Chloro-benzylamino)-pyridin-2-yl]-1H-pyrazolo[3,4-d]pyrimidin-6-yl}-(2-morpholin-4-yl-ethyl)-amine]	0.924 µM	> 10 µM	0.663 µM	
NCC(Nc1nccc(-c2n[nH]c3nc(NCCN4CCOCC4)ncc23)n1)c1ccccc1 (centres unmarked) [Example 83, N1-{4-[6-(2-Morpholin-4-yl-ethylamino)-1H-pyrazolo[3,4-d]pyrimidin-3-yl]-pyrimidin-2-yl}-1-phenyl-ethane-1,2-diamine; hydrochloride]		0.56 µM		0.0183 µM
OCCNc1ncc2c(-c3ccnc(NCc4cccc(Cl)c4)n3)n[nH]c2n1 [Example 91, 2-{3-[2-(3-Chloro-benzylamino)-pyrimidin-4-yl]-1H-pyrazolo[3,4-d]pyrimidin-6-ylamino}-ethanol; hydrochloride]	0.183 µM		0.25 µM	
Clc1cccc(CNc2nccc(-c3n[nH]c4nc(NCCN5CCNCC5)ncc34)n2)c1 [Example 92, {3-[2-(3-Chloro-benzylamino)-pyrimidin-4-yl]-1H-pyrazolo[3,4-d]pyrimidin-6-yl}-(2-piperazin-1-yl-ethyl)-amine; hydrochloride]	0.057 µM		0.076 µM	
Clc1cccc(CNc2nccc(-c3n[nH]c4nc(NCCN5CCCCC5)ncc34)n2)c1 [Example 93, hydrochloride]	0.93 µM		0.46 µM	
